Active and inactive are the calls of the source.
Legend:
[1] = human group III sPLA2 inhibitors, dose response, biochemical, QFRET, IC50 (AID 743457);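 note: green fluorescence rise as the enzyme cleaves BODIPY PC-A2 in liposomes; potency for inhibition of the enzyme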
[2] = biological target: Alkaline phosphatase, placental type (Homo sapiens, UniProt P05187); assay: PLAP enzyme inhibitors, confirmation, biochemical, luminescence (AID 1512); format: functional
[3] = MC4R antagonists, dose response, counter-screen for LGR2 antagonist project, cell-based, plate reader, cherry pick (AID 743444); format: functional;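 note: transfected HEK 293 cells stimulated with alpha-MSH peptide; potency of inhibitors of the alpha-MSH evoked signal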
[4] = HepG2 cell cytotoxicity, dose response, cytotoxicity control, plate reader, cherry-pick, antagonist series (AID 743416); format: functional, cell-based
[5] = biological target: T1, Replicative DNA helicase DnaB (Mycobacterium tuberculosis, UniProt P9WMR3); assay: DnaB intein splicing inhibitors, dose response, biochemical, cell-free fluorescence (AID 449749); format: functional
T1 sequence (P9WMR3 whole entry): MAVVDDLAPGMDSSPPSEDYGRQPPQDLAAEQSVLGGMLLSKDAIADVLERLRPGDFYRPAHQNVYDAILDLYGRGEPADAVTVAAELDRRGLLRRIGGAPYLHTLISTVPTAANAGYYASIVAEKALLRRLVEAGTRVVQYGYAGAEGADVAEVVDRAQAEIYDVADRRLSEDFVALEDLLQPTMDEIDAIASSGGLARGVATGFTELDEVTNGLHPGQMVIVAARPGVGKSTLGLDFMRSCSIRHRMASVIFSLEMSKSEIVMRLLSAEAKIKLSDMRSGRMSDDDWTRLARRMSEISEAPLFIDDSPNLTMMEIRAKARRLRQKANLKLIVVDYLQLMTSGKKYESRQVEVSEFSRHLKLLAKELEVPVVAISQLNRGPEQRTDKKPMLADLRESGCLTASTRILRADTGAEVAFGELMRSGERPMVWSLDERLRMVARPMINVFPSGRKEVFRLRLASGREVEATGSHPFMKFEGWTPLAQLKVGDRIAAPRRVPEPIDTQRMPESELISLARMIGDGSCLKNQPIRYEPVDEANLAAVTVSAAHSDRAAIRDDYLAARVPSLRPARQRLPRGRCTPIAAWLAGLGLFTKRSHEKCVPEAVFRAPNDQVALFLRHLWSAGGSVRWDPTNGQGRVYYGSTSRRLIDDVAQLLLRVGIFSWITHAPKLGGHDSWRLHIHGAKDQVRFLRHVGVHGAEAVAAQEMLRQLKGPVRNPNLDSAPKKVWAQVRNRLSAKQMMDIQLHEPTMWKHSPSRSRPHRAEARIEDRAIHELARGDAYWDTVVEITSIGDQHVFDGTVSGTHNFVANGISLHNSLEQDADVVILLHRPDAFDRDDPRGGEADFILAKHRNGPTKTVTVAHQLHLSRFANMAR

[6] = HEp-2 cell cytotoxicity, dose response, cytotoxicity control for RSV inhibitor project, HTS (AID 2410); format: functional; conditions: human respiratory syncytial virus
[7] = HEK293 cell cytotoxicity, dose response, cytotoxicity control, plate reader, cherry-picked samples (AID 743446); format: functional, cell-based
[8] = LGR2 antagonists, dose response, cell-based, HEK293, CRE-luciferase reporter, cherry pick, set 2 (AID 743343); format: functional;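 note: transfected cells were stimulated with diluted bursicon conditioned medium after compound addition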
[9] = Intein inhibitors as potential Tuberculosis drugs, a cytotoxicity screen. [Related pubchem assays (depositor defined):AID2221, AID2223, AID434968, AID435010, AID449749, AID449750, AID489010]; format: functional
[10] = A549 cell cytotoxicity, dose response, cytotoxicity control, plate reader, cherry-pick, antagonist series (AID 743412); format: functional, cell-based
Protein RecA = biological target: T2, Protein RecA (Mycobacterium tuberculosis, UniProt P9WHJ3); assay: Fluorescence Cell-Free Homogeneous Dose Retest to Identify Inhibitors of RecA-Intein Splicing Activity. [Related pubchem assays (depositor defined):AID2097, AID2223, AID489010, AID492950]; format: functional
T2 sequence (P9WHJ3 whole entry): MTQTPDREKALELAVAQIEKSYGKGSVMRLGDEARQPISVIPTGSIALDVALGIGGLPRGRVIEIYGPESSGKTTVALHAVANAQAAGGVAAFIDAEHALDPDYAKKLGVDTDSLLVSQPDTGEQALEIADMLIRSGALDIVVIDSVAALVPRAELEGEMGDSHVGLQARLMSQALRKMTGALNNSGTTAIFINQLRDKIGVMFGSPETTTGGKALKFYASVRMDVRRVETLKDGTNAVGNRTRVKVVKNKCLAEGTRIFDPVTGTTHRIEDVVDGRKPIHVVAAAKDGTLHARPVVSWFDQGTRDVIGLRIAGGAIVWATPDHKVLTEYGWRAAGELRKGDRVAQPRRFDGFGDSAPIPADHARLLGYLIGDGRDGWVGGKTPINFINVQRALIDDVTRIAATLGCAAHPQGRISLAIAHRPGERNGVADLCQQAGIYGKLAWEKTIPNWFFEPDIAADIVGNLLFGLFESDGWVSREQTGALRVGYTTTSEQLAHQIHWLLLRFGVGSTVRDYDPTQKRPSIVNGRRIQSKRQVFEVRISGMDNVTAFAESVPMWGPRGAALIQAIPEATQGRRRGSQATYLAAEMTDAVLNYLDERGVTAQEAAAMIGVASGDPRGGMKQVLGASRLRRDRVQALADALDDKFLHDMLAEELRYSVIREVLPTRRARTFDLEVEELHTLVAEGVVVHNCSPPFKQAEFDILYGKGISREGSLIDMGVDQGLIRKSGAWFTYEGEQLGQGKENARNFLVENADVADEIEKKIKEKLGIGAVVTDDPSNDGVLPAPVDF

[11] = biological target: T3, Tyrosine-protein phosphatase non-receptor type 22 (Homo sapiens, UniProt Q9Y2R2); assay: LYP (PTPN22) phosphatase inhibitor potency, SAR follow-up, biochemical, pCAP fluorogenic substrate, fluorescence, set 3 (AID 449727); format: functional
T3 sequence (Q9Y2R2 whole entry): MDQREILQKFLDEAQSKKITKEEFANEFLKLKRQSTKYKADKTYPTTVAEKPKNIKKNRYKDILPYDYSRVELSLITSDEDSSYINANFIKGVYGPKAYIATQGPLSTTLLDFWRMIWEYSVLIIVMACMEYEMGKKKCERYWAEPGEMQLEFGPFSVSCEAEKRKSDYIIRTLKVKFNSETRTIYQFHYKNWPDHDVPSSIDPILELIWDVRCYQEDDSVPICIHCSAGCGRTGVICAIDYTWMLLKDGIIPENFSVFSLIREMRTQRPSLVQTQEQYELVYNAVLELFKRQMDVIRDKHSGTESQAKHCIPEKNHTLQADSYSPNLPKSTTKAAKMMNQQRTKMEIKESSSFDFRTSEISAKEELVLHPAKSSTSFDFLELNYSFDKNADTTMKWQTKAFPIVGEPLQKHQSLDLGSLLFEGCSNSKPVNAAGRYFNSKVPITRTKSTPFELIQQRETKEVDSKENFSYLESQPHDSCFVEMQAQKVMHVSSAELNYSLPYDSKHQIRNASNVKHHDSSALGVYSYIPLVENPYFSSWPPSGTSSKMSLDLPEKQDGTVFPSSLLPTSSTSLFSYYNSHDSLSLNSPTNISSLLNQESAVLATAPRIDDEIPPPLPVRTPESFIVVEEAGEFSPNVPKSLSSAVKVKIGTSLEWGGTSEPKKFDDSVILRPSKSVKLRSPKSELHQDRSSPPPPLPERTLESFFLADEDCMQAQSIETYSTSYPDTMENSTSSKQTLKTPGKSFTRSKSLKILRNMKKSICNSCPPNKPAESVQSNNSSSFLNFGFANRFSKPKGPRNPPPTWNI

[12] = biological target: T4, Tyrosine-protein phosphatase non-receptor type 12 (Homo sapiens, UniProt Q05209); assay: SAR Selectivity Analysis of small molecule inhibitors of PEST using pCAP in a fluorescence assay. [Related pubchem assays (depositor defined):AID1779, AID1784, AID2135]; format: functional
T4 sequence (Q05209 whole entry): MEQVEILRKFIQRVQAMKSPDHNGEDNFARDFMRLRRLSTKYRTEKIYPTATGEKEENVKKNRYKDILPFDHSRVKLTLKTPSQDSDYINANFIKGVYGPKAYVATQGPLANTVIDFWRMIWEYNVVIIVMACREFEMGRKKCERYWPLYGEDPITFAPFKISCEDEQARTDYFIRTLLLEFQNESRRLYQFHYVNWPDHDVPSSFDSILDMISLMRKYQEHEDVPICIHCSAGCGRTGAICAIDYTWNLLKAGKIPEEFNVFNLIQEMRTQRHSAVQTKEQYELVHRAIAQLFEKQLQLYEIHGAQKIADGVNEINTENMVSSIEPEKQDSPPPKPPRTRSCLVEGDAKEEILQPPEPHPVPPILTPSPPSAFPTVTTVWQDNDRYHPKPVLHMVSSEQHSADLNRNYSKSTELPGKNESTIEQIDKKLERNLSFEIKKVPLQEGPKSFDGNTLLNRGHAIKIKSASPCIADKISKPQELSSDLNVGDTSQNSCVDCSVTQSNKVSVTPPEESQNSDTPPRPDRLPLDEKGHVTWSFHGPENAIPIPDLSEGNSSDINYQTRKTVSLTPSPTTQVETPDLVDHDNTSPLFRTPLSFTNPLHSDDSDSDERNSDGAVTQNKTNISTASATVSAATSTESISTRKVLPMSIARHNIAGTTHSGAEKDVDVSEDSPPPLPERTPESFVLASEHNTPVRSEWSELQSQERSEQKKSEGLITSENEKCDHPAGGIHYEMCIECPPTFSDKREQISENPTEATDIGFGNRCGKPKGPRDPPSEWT

[13] = biological target: T5, Tyrosine-protein phosphatase non-receptor type 7 (Homo sapiens, UniProt P35236); assay: HePTP (PTPN7) phosphatase inhibitor potency, SAR follow-up, biochemical, set 2 (AID 449736); format: functional
T5 sequence (P35236 whole entry): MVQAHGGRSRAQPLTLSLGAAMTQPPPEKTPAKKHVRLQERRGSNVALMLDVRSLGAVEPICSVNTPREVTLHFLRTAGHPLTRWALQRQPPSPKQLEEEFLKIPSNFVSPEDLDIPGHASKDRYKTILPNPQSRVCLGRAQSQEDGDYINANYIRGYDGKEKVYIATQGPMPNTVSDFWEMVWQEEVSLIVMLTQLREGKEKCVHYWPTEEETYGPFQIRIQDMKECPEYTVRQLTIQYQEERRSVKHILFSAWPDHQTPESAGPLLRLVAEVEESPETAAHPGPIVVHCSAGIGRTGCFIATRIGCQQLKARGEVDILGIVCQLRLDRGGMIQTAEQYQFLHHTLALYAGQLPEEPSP

[14] = biological target: T3, Tyrosine-protein phosphatase non-receptor type 22; assay: SAR LYP1 Fluorescent Assay using OMFP substrate for In Vitro dose response studies - Set 2. [Related pubchem assays (depositor defined):AID1779, AID1784, AID2140, AID449726, AID488869]; format: functional
[15] = biological target: T3, Tyrosine-protein phosphatase non-receptor type 22; assay: PubChem AID 2135
[16] = biological target: T3, Tyrosine-protein phosphatase non-receptor type 22; assay: SAR LYP1 Fluorescent Assay using OMFP substrate for In Vitro dose response studies - Set 3. [Related pubchem assays (depositor defined):AID1779, AID1784, AID2140, AID2686]; format: functional
[17] = biological target: T3, Tyrosine-protein phosphatase non-receptor type 22; assay: SAR LYP1 Fluorescent Assay using pCAP substrate for In Vitro dose response studies - Set 2. [Related pubchem assays (depositor defined):AID1779, AID1784, AID2135, AID449727]; format: functional
[18] = biological target: T3, Tyrosine-protein phosphatase non-receptor type 22; assay: PubChem AID 2140
[19] = growth suppression of PTEN-null colon cells, dose response, cell-based, HCT116 PTEN knockout (AID 1047); format: functional;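 note: HCT116 colon tumor cells with PTEN knocked out; cells exposed to compound for 60 hours before readout; potency for loss of cell viability measured by luminescence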
[20] = inhibitors of SNCA 5'UTR-driven reporter translation, confirmation, H4 neuroglioma cells, luminescence (AID 1988); format: functional, cell-based
[21] = growth suppression of beta-catenin-knockout colon cells, dose response, cell-based, HCT116, human colon tumor (AID 1045); format: functional;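 note: HCT116 colon tumor cells with beta catenin knocked out; cells exposed to compound for 60 hours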
[22] = inhibitors of firefly luciferase expression or activity, dose response, H4 neuroglioma cells, luminescence (AID 1990); format: functional, cell-based
INS1 = assay: beta cell apoptosis inhibitors, cytokine rescue, dose response, luminescence, retest (AID 449756); format: functional, cell-based; conditions: Rattus norvegicus;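 note: cell death triggered by IL-1 beta plus TNF-alpha plus IFN-gamma mixture; protective hits raise ATP signal compared with cytokine alone wells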
[23] = Luminescence Cell-Based Dose Response HTS to Identify Inhibitors of 5'UTR Stem-Loop Driven Prion Protein mRNA Translation in H4 Neuroglioblastoma Cells. [Related pubchem assays: 1827 (Project Summary), 1813 (Primary HTS)]; format: functional

Sequence of Alkaline phosphatase, placental type (P05187 whole entry): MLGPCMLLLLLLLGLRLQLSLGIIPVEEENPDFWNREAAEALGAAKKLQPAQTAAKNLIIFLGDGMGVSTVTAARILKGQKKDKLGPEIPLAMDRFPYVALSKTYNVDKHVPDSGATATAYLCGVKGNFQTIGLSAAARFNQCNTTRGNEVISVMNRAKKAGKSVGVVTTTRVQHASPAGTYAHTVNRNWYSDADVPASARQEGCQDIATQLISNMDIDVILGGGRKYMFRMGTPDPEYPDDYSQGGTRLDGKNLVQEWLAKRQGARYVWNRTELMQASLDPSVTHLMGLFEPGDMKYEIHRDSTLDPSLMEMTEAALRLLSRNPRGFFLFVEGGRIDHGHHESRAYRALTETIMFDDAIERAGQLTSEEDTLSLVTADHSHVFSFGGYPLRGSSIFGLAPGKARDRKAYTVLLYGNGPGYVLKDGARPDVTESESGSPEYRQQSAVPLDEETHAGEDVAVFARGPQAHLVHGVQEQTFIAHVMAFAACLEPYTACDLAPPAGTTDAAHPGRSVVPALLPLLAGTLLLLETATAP

## CCN=C(S)NN=C(S)NCc1ccccc1
[1]
  IC50: > 122 µM (inactive)
[2]
  IC50: > 100 µM (inactive)

## Cc1sc2ncnc(Sc3nnnn3-c3ccccc3)c2c1C
[3]
  AC50: 3.94 µM (active)
[4]
  AC50: 15.4 µM (active)
[5]
  AC50: 3.83 µM (active)
[6]
  CC50: 11.2 µM (active)
[7]
  AC50: 19.3 µM (active)
[8]
  AC50: 4.15 µM (active)
[9]
  CC50: 14.4 µM (active)
[10]
  AC50: 10.9 µM (active)
Protein RecA
  EC50: 3.18 µM (active)

## CCOc1cc(/C=C(/C#N)c2cccc(F)c2)cc(Cl)c1OCc1ccc(C(=O)O)cc1
[11]
  IC50: 46.7 µM (active)
[12]
  IC50: 5.08 µM (active)
[13]
  IC50: 2.25 µM (active)
[14]
  IC50: 21.8 µM (active)
[15]
  IC50: > 100 µM (inactive)
[16]
  IC50: 34.6 µM (active)
[17]
  IC50: 36.1 µM (active)
[18]
  IC50: > 100 µM (inactive)

## CCOC(=O)C1CCN(C(=O)c2c(C)oc3c2C(=O)c2ccccc2C3=O)CC1
[19]
  EC50: 3.87 µM (active)
[20]
  EC50: 7.82 µM (active)
[5]
  AC50: 2.06 µM (active)
[21]
  EC50: 3.32 µM (active)
[22]
  EC50: > 120 µM (not active)
INS1
  AC50: 6.25 µM (active)
[9]
  CC50: 13.7 µM (active)
[23]
  EC50: 18.3 µM (active)
Protein RecA
  EC50: 0.645 µM (active)

Reference: ChEMBL document CHEMBL1201862, “PubChem BioAssay data set” (2004)
